According to US5616604A, “Aminopyrrolizinone analogues for anti-inflammation and analgesia (II)” (priority 1996, dated 1997):

Experiments:
[1] = test system: mouse writhing induced by acetic acid; assay: inhibition of acetic acid-induced writhe in mice; assay type: in vivo; details: oral, female mice, dose/LD50: SFZ-47 1/15, SFZ-58 1/10, ibuprofen 1/5, indomethacin 1/4; for Numb. of writhing (x ± SD): 0.7% acetic acid i.p. 1 h later, 20 min observation, N.S. 17.0 ± 6.8; for Rate of inhibition (%): writhing vs normal saline
Protocol: The influence of SFZ-47, 58 on inhibition of acetic acid-induces writhe.
SFZ-47 and SFZ-58 were suspended in 0.5% carboxymethylcellulose (CMC) and administered per os. to female mice of weight 18-24 g. 1 hour later, 0.2 ml of a 0.7% solution of acetic acid was injected to mouse by intraperironeally. The animals were observed during the next 20 min. for writhe.

gastric mucosa of rats = assay: effects on gastric mucosa of rats (ulcer index); assay type: in vivo, rat; details: n = 5, SFZ-47 400 mg/kg, SFZ-58 300 mg/kg, ibuprofen 200 mg/kg, indomethacin 10 mg/kg
Description: Effects of SFZ-47 and SFZ-58 on gastric mucosa of rats

[2] = test system: carrageenin-induced paw edema; assay: inhibition of carrageenin-induced paw edema in rat; assay type: in vivo; details: oral, male rats, dose/LD50: SFZ-47 1/15, SFZ-58 1/10, ibuprofen 1/5, indomethacin 1/4; for carrageenin-induced paw edema, 1 hour: N.S. 0.40 ± 0.00; for carrageenin-induced paw edema, 2 hours: N.S. 0.78 ± 0.09; for carrageenin-induced paw edema, 3 hours: N.S. 0.75 ± 0.09; for carrageenin-induced paw edema, 4 hours: N.S. 0.75 ± 0.05; for carrageenin-induced paw edema, 5 hours: N.S. 0.76 ± 0.09
Protocol: The influence of SFZ-47, 58 on inhibition of Carrageenin-Induced Paw Edema in Rat.
The test agent was administered by oral liquid to male rats of weight 140-180 g. 0.05 ml of 1% carrageenin injected into the pad of the right hind paw 1 hour later. The perimeter of the rat ankles were measured each hour after compound administration.

cerebral circulation = details: prior art, cited from earlier work
splanchnic vascular bed = details: prior art, in words; cited from earlier work

| SMILES | Numb. of writhing (x ± SD) [1] | Rate of inhibition (%) [1] [%] | Ulcer index (gastric mucosa of rats) [mm^2] | carrageenin-induced paw edema, 1 hour [2] | carrageenin-induced paw edema, 2 hours [2] | carrageenin-induced paw edema, 3 hours [2] | carrageenin-induced paw edema, 4 hours [2] | carrageenin-induced paw edema, 5 hours [2] | cerebral blood flow response to hypercapnia (cerebral circulation; in words) | decrease of cerebral blood flow (cerebral circulation) | blood flow in the splanchnic vascular bed (splanchnic vascular bed) |
| --- | --- | --- | --- | --- | --- | --- | --- | --- | --- | --- | --- |
| CC(C)Cc1ccc(C(C)C(=O)O)cc1 (stereo not shown) [Ibuprofen] | 4.3 ± 3.9 | 75 | 13.3 ± 4.2 | 0.29 ± 0.06 | 0.41 ± 0.11 | 0.52 ± 0.00 | 0.51 ± 0.00 | 0.47 ± 0.10 | – | – | – |
| COc1ccc2c(c1)c(CC(=O)O)c(C)n2C(=O)c1ccc(Cl)cc1 [Indomethacin] | 2.7 ± 1.5 | 84 | 14.0 ± 6.9 | 0.21 ± 0.18 | 0.33 ± 0.08 | 0.45 ± 0.08 | 0.43 ± 0.13 | 0.43 ± 0.13 | abolishing cerebral blood flow response to hypercapnia | 25-35% | diminishes blood flow in the splanchnic vascular bed |
